Measured values: patent US9943498B2, “Fe(III) complex compounds for the treatment and prophylaxis of iron deficiency symptoms and iron deficiency anemias” (Vifor (International) AG, priority 2010, dated 2018)

The substances below were run on Male NMRI (SPF) mice fed a low-iron diet (assay: Fe utilization in iron-deficient mouse model). Conditions: male NMRI mice on low-iron diet (approx. 5 ppm iron); 2 mg iron/kg body weight/day by stomach tube, days 1-5 and 8-12; utilization on day 15 calculated from hemoglobin and body weight increase versus control group.
Assay type: in vivo
Protocol: The excellent Fe utilizations that can be accomplished through the Fe complexes according to the invention were measured by means of the following mouse model.
Male NMRI (SPF) mice (approximately 3 weeks old) were fed a low-iron diet (approx. 5 ppm iron) for approximately 3 weeks. The iron complexes were then administered to them by means of a stomach tube (2 mg iron/kg body weight/day) for 2 times 5 days, with an interruption of 2 days (days 1-5 and 8-12). Utilization on day 15 was calculated from the hemoglobin increase and the body weight increase in accordance with the formula
[formula] • 0.07=Factor for 70 ml blood per kg body weight (BW) • 0.0034=Factor for 0.0034 g Fe/g Hb • Hb1=Hemoglobin level (g/I) on day 1 • Hb2(3)=Hemoglobin level (g/I) on day 8 (or 15) • BW4=body weight (g) on day 1 • BW9(14)=body weight (g) on day 8 (or 15) • Hb1 Control=average hemoglobin level (g/I) on day 1 in the control group, • Hb2(3) Control=average hemoglobin level (g/I) on day 8 (or 15) in the control group, • BW4 Control=average body weight (g) on day 1 in the control group, • BW9(14) Control=average body weight (g) on day 8 (or 15) in the control group, • Fe Dos.=entire administered iron (mg Fe) over 5 or 10 days, • Fe ut.=(Hb2(3)*BW9(14)-Hb1*BW4)*0.07*0.0034 (mg Fe) Δ Utilization=Fe tot. utilized (examined group)—Fe ut. Control group, utilized from food, (mg Fe)

| Substance | Utilization n 15 d (abs. %) |
| --- | --- |
| Tris-(N,N,4-Trimethyl-3-oxopentanamide)-iron(III)-complex [Example 25] | 60 abs. % |
| Tris-(3-oxobutaneamide)-iron(III) Complex [Example 1] | 61 abs. % |
| Tris(N,N-dimethyl-3-oxopentaneamide)-iron(III) Complex [Example 19] | 73 abs. % |
| Tris-(N-Cyclopropyl-3-oxobutanamide)-iron(III)-complex [Example 35] | 44 abs. % |
| Tris(3-oxo-2-(piperidin-1-ylcarbonyl)butanenitrile)-iron(III) Complex [Example 5] | 61 abs. % |
| Tris-(4-Methoxy-N,N-dimethyl-3-oxobutanamide)-iron(III)-complex [Example 24] | 70 abs. % |
| Tris-(1-(4-hydroxypiperidin-1-yl)pentane-1,3-dione)-iron(III)-complex [Example 61] | 73 abs. % |
| Tris-(3-oxo-N,N-dipropylbutaneamide)-iron(III) Complex [Example 15] | 68 abs. % |
| Tris(N,N-dibutyl-3-oxobutaneamide)-iron(III) Complex [Example 8] | 69 abs. % |
| Tris(N-butyl-3-oxobutaneamide)-iron(III) Complex [Example 7] | 41 abs. % |
| Tris(3-oxoheptaneamide)-iron(III) Complex [Example 10] | 45 abs. % |
| Tris-(N-(2,3-dihydroxypropyl)-3-oxobutanamide)-iron(III)-complex [Example 46] | 78 abs. % |
| Tris-(2-Fluoro-3-oxo-N-propylbutanamide)-iron(III)-complex [Example 23] | 88 abs. % |
| Tris-(N-(4-hydroxybutyl)-3-oxobutanamide)-iron(III)-complex [Example 39] | 66 abs. % |
| Tris-(1-[(3S)-3-hydroxypyrrolidin-1-yl]butane-1,3-dione)-iron(III)-complex [Example 51] | 78 abs. % |
| Tris-(1-(2,6-dimethylmorpholin-4-yl]butane-1,3-dione)-iron(III)-complex [Example 59] | 80 abs. % |
| Tris-(Ethyl (1-methyl-2-oxopyrrolidin-3-yl)(oxo)acetate)-iron(III)-complex [Example 29] | 79 abs. % |
| Tris-(N,N-bis-(2-hydroxyethyl)-3-oxobutaneamide)-iron(III) Complex [Example 12] | 35 abs. % |
| Tris-(N-hexyl-3-oxobutaneamide)-iron(III) Complex [Example 16] | 60 abs. % |
| Tris-(1-(4-hydroxypiperidin-1-yl)-butane-1,3-dione)-iron(II) complex [Example 14] | 68 abs. % |
| Tris(N-methyl-3-oxoheptaneamide)-iron(III) Complex [Example 11] | 75 abs. % |
| Tris-(ethyl 4-(dimethylamino)-2,4-dioxobutanoate)-iron(III)-complex [Example 32] | 81 abs. % |
| Tris-(N-(2-hydroxypropyl)-3-oxobutanamide)-iron(III)-complex [Example 43] | 75 abs. % |
| Tris-(N-(3-hydroxypropyl)-3-oxobutanamide)-iron(III)-complex [Example 38] | 77 abs. % |
| Tris-(3-acetyl-1-methylpiperidin-2-one)-iron(III)-complex [Example 31] | 71 abs. % |
| Tris-(N-(2-hydroxyethyl)-N-methyl-3-oxobutanamide)-iron(III)-complex [Example 42] | 30 abs. % |

| Substance | Utilization n 15 d (abs. %) |
| --- | --- |
| Tris-(3-acetyl-1-methylpyrrolidin-2-one)-iron(III)-complex [Example 28] | 73 abs. % |
| Tris-(N,N-diethyl-3-oxobutaneamide)-iron(III) Complex [Example 2] | 41 abs. % |
| Tris-(N-(2-Hydroxyethyl)-N,4-dimethyl-3-oxopentanamide)-iron(11)-complex [Example 65] | 73 abs. % |
| Tris-(4-Methyl-1-(morpholin-4-yl)-pentane-1,3-dione)-iron(III)-complex [Example 26] | 64 abs. % |
| Tris-(N-(2-methoxyethyl)-3-oxobutanamide)-iron(III)-complex [Example 34] | 32 abs. % |
| Tris-(2-Fluoro-N,N-dimethyl-3-oxobutanamide)-iron(II)-complex [Example 22] | 78 abs. % |
| Tris-(1-[4-(2-hydroxyethyl)piperazin-1-yl]butane-1,3-dione)-iron(III)-complex [Example 52] | 84 abs. % |
| Tris-(4-Methoxy-1-(morpholin-4-yl)butane-1,3-dione)-iron(III)-complex [Example 27] | 88 abs. % |
| Tris-(1-(morpholin-4-yl)butane-1,3-dione)-iron(III)-complex [Example 33] | 69 abs. % |
| Tris-(N-methyl-3-oxobutaneamide)-iron(III) Complex [Example 4] | 90 abs. % |
| Tris(3-oxopentaneamide)-iron(III) Complex [Example 18] | 81 abs. % |
| Tris-(N-(1-hydroxy-2-methylpropan-2-yl)-3-oxobutanamide)-iron(III)-complex [Example 41] | 68 abs. % |
| Tris-(ethyl N-(3-oxobutanoyl)glycinate)-iron(l) complex (Tris((3-Oxo-butyrylamino)ethyl acetate)iron) [Example 20] | 77 abs. % |
| Tris-(1-(morpholin-4-yl)pentane-1,3-dione)-iron(III)-complex [Example 62] | 68 abs. % |
| Tris-(1-(4-Hydroxypiperidin-1-yl)-4-methylpentane-1,3-dione)-iron(III)-complex [Example 64] | 79 abs. % |
| Tris-(1-(piperidin-1-yl)-butane-1,3-dione)-iron(III) Complex [Example 9] | 54 abs. % |
| Tris-(N-(3-hydroxypropyl)-N-methyl-3-oxobutanamide)-iron(III)-complex [Example 54] | 76 abs. % |
| Tris(N,N-dimethyl-3-oxoheptaneamide)-iron(III) Complex [Example 17] | 48 abs. % |
| Tris-(N-Butyl-3-oxoheptanamide)-iron(III)-complex [Example 63] | 71 abs. % |
| Tris-(N,N-dimethyl-3-oxobutaneamide)-iron(III) Complex [Example 3] | 95 abs. % |
| Tris-(1-(3-hydroxypiperidin-1-yl)butane-1,3-dione)-iron(III)-complex [Example 47] | 61 abs. % |
| Tris-(N-butyl-N-methyl-3-oxobutaneamide)-iron(ill) Complex [Example 13] | 71 abs. % |
| Tris-(N-(trans-4-hydroxycyclohexyl)-3-oxobutanamide)-iron(III)-complex [Example 55] | 84 abs. % |
| Tris-(1-[4-(hydroxymethyl)piperidin-1-yl]butane-1,3-dione)-iron(III)-complex [Example 48] | 53 abs. % |
| Tris-(N-(morpholin-4-yl)-3-oxobutanamide)-iron(III)-complex [Example 60] | 80 abs. % |
| Tris-(3-oxo-N-(propan-2-yl)butanamide)-iron(III)-complex [Example 36] | 79 abs. % |

Same assay, conditions: mouse, in vivo

| Substance | Utilization n 15 d (abs. %) |
| --- | --- |
| Tris-(N-(5-hydroxypentyl)-3-oxobutanamide)-iron(III)-complex [Example 40] | 87 abs. % |
| Tris-(N-(1-hydroxypropan-2-yl)-3-oxobutanamide)-iron(III)-complex [Example 44] | 73 abs. % |
| Tris-(2-chloro-N-methyl-3-oxobutaneamide)-iron(III) Complex [Example 6] | 57 abs. % |
| Tris-(N-(2-hydroxyethyl)-3-oxobutanamide)-iron(III)-complex [Example 37] | 34 abs. % |
